Data taken from US10208047B2, “Tertiary alcohol imidazopyrazine BTK inhibitors” (Merck Sharp & Dohme Corp., priority 2014, dated 2019).

Target: BTK enzyme (recombinant full-length BTK, hBTK) (Homo sapiens (Human), UniProt Q06187)
Test: Btk enzyme activity assay, LANCE TR-FRET
Assay type: biochemical
Conditions: 50 pM hBTK, 2 μM biotin-A5-peptide, 25 μM ATP, 60 minute compound & enzyme incubation, compound range 1 μM to 0.017 nM, read-out: BTK binding IC50
Method: Btk Enzyme Activity Assay Methods
BTK enzymatic activity was determined with the LANCE (Lanthanide Chelate Excite) TR-FRET (Time-resolved fluorescence resonance energy transfer) assay. In this assay, the potency (IC50) of each compound was determined from an eleven point (1:3 serial dilution; final compound concentration range in assay from 1 μM to 0.017 nM) titration curve using the following outlined procedure. To each well of a black non-binding surface Corning 384-well microplate (Corning Catalog #3820), 5 nL of compound (2000 fold dilution in final assay volume of 10 μL) was dispensed, followed by the addition of 7.5 μL of 1× kinase buffer (50 mM Hepes 7.5, 10 mM MgCl2, 0.01% Brij-35, 1 mM EGTA, 0.05% BSA & 1 mM DTT) containing 5.09 pg/μL (66.67 pM) of BTK enzyme (recombinant protein from baculovirus-transfected Sf9 cells: full-length BTK, 6HIS-tag cleaved). Following a 60 minute compound & enzyme incubation, each reaction was initiated by the addition of 2.5 μL 1× kinase buffer containing 8 μM biotinylated “A5” peptide (Biotin-EQEDEPEGDYFEWLE-NH2) (SEQ.ID.NO.: 1), and 100 μM ATP. The final reaction in each well of 10 μL consists of 50 pM hBTK, 2 μM biotin-A5-peptide, and 25 μM ATP. Phosphorylation reactions were allowed to proceed for 120 minutes. Reactions were immediately quenched by the addition of 20 uL of 1× quench buffer (15 mM EDTA, 25 mM Hepes 7.3, and 0.1% Triton X-100) containing detection reagents (0.626 nM of LANCE-Eu-W1024-anti-phosphoTyrosine antibody, PerkinElmer and 86.8 nM of Streptavidin-conjugated Dylight 650, Dyomics/ThermoFisher Scientific). After 60 minutes incubation with detection reagents, reaction plates were read on a PerkinElmer EnVision plate reader using standard TR-FRET protocol. Briefly, excitation of donor molecules (Eu-chelate:anti-phospho-antibody) with a laser light source at 337 nm produces energy that can be transferred to Dylight-650 acceptor molecules if this donor:acceptor pair is within close proximity. Fluorescence intensity at both 665 nm (acceptor) and 615 nm (donor) are measured and a TR-FRET ratio calculated for each well (acceptor intensity/donor intensity). IC50 values were determined by 4 parameter robust fit of TR-FRET ratio values vs. (Log10) compound concentrations.

Chain of BTK enzyme (recombinant full-length BTK, hBTK) (Q06187 whole entry): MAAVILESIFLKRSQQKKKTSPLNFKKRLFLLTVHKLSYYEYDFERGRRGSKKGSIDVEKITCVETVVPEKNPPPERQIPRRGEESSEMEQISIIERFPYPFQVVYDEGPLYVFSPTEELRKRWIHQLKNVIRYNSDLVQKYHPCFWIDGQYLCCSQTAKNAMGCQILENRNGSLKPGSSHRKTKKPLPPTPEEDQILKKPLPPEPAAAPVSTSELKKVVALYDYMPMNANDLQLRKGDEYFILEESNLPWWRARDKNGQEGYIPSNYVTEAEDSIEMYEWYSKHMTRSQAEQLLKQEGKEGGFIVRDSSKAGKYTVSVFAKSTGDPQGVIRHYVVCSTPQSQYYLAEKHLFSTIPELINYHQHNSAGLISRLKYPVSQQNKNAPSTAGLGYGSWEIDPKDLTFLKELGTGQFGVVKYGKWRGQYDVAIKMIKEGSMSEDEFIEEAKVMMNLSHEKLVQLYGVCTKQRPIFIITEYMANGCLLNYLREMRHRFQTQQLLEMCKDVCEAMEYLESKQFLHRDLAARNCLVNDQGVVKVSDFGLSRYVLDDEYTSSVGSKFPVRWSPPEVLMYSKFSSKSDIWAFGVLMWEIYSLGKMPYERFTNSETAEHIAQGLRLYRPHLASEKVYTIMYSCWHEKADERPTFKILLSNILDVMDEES

Row | Structure (SMILES) | IC50 [nM]
1 | C[C@@](O)(c1ccc(-c2nc([C@H]3C[C@H]4CC[C@@H](C3)[C@H]4C(=O)O)n3ccnc(N)c23)cc1)c1cccc(C(F)(F)F)c1 [Example 25, (3-endo,8-syn)-3-[8-amino-1-(4-{(1R)-1-hydroxy-1-[3-(trifluoromethyl)phenyl]ethyl}phenyl)imidazo[1,5-a]pyrazin-3-yl]bicyclo[3.2.1]octane-8-carboxylic acid] | 39.9
2 | CC1(C)[C@H](c2nc(-c3ccc([C@@](C)(O)c4cccc(C(F)F)c4)cc3)c3c(N)ncc(F)n23)CC[C@]1(C)C(=O)O [Example 34, (1S,3R)-3-[8-amino-1-(4-{(1R)-1-[3-(difluoromethyl)phenyl]-1-hydroxyethyl}phenyl)-5-fluoroimidazo[1,5-a]pyrazin-3-yl]-1,2,2-trimethylcyclopentanecarboxylic acid] | 2.4
3 | C[C@@](O)(c1ccc(-c2nc(C3(C(=O)O)CC3)n3ccnc(N)c23)cc1)c1cccc(C(F)(F)F)c1 [Example 7, 1-[8-amino-1-(4-{(1R)-1-hydroxy-1-[3-(trifluoromethyl)phenyl]ethyl}phenyl)imidazo[1,5-a]pyrazin-3-yl]cyclopropanecarboxylic acid] | 614
4 | CCOc1cc([C@@](C)(O)c2cccc(C(F)(F)F)c2)ccc1-c1nc([C@@H]2CC[C@](C)(C(=O)O)C2(C)C)n2ccnc(N)c12 [Example 28, (1S,3R)-3-[8-amino-1-(2-ethoxy-4-{(1S)-1-hydroxy-1-[3-(trifluoromethyl)phenyl]ethyl}phenyl)imidazo[1,5-a]pyrazin-3-yl]-1,2,2-trimethylcyclopentanecarboxylic acid] | 1.2
5 | CC1(C)[C@H](c2nc(-c3ccc([C@@](C)(O)c4cccc(C(F)F)c4)cc3)c3c(N)nccn23)CC[C@]1(C)C(=O)O [Example 27, (1S,3R)-3-[8-amino-1-(4-{(1R)-1-[3-(difluoromethyl)phenyl]-1-hydroxyethyl}phenyl)imidazo[1,5-a]pyrazin-3-yl]-1,2,2-trimethylcyclopentanecarboxylic acid] | 0.78
6 | CC1(C)[C@H](c2nc(-c3ccc([C@@](C)(O)c4cccc(C(F)(F)F)c4)cc3)c3c(N)ncc(F)n23)CC[C@]1(C)C(=O)O [Example 24, (1S,3R)-3-[8-amino-5-fluoro-1-(4-{(1R)-1-hydroxy-1-[3-(trifluoromethyl)phenyl]ethyl}phenyl)imidazo[1,5-a]pyrazin-3-yl]-1,2,2-trimethylcyclopentanecarboxylic acid] | 6.3
7 | CC1(C)[C@H](c2nc(-c3ccc([C@@](C)(O)c4cccc(C(F)(F)F)c4)cc3)c3c(N)nccn23)CC[C@]1(C)C(=O)O [Example 11, (1S,3R)-3-[8-amino-1-(4-{(1R)-1-hydroxy-1-[3-(trifluoromethyl)phenyl]ethyl}phenyl)imidazo[1,5-a]pyrazin-3-yl]-1,2,2-trimethylcyclopentanecarboxylic acid] | 5
8 | C[C@@](O)(c1ccc(-c2nc(C34CCC(C(=O)O)(CC3)C4)n3ccnc(N)c23)cc1)c1cccc(C(F)(F)F)c1 [Example 8, 4-[8-amino-1-(4-{(1R)-1-hydroxy-1-[3-(trifluoromethyl)phenyl]ethyl}phenyl)imidazo[1,5-a]pyrazin-3-yl]bicyclo[2.2.1]heptane-1-carboxylic acid] | 1.1
9 | CC1(C)[C@@H](c2nc(-c3ccc([C@@](C)(O)c4cccc(C(F)(F)F)c4)cc3)c3c(N)nccn23)CC[C@@]1(C)C(=O)O [Example 13, (1R,3S)-3-[8-amino-1-(4-{(1R)-1-hydroxy-1-[3-(trifluoromethyl)phenyl]ethyl}phenyl)imidazo[1,5-a]pyrazin-3-yl]-1,2,2-trimethylcyclopentanecarboxylic acid] | 86
10 | CCOc1cc(C(C)(O)c2cccc(C)c2)ccc1-c1nc(C23CCC(C(=O)O)(CC2)CC3)n2ccnc(N)c12 (stereo not drawn) [Example 19, 4-(8-amino-1-{2-ethoxy-4-[1-hydroxy-1-(3-methylphenyl)ethyl]phenyl}imidazo[1,5-a]pyrazin-3-yl)bicyclo[2.2.2]octane-1-carboxylic acid] | 4.1
11 | C[C@@](O)(c1ccc(-c2nc(C34CCC(C(=O)O)(CC3)C3CC34)n3ccnc(N)c23)cc1)c1cccc(C(F)(F)F)c1 (stereo partly drawn) [Example 22, 5-[8-amino-1-(4-{(1R)-1-hydroxy-1-[3-(trifluoromethyl)phenyl]ethyl}phenyl)imidazo[1,5-a]pyrazin-3-yl]tricyclo[3.2.2.0~2,4~]nonane-1-carboxylic acid] | 6.2
12 | C[C@@](O)(c1ccc(-c2nc(C3(C(=O)O)CCOCC3)n3ccnc(N)c23)cc1)c1cccc(C(F)(F)F)c1 [Example 10, 4-[8-amino-1-(4-{(1R)-1-hydroxy-1-[3-(trifluoromethyl)phenyl]ethyl}phenyl)imidazo[1,5-a]pyrazin-3-yl]tetrahydro-2H-pyran-4-carboxylic acid] | 294
13 | C[C@@](O)(c1ccc(-c2nc(C34CCC(C(=O)O)(CC3=O)C(=O)C4)n3ccnc(N)c23)cc1)c1cccc(C(F)(F)F)c1 (stereo partly drawn) [Example 6, 4-[8-amino-1-(4-{(1R)-1-hydroxy-1-[3-(trifluoromethyl)phenyl]ethyl}phenyl)imidazo[1,5-a]pyrazin-3-yl]-2,5-dioxobicyclo[2.2.2]octane-1-carboxylic acid] | 52
14 | CC(C)[C@@H]1CC[C@H](c2nc(-c3ccc([C@@](C)(O)c4cccc(C(F)(F)F)c4)cc3)c3c(N)nccn23)C[C@@H]1C(=O)O [Example 23, (1S,2S,5S)-5-[8-amino-1-(4-{(1R)-1-hydroxy-1-[3-(trifluoromethyl)phenyl]ethyl}phenyl)imidazo[1,5-a]pyrazin-3-yl]-2-(1-methylethyl)cyclohexanecarboxylic acid] | 28.7
15 | CC(C)[C@]1(C(=O)O)CCC[C@@H](c2nc(-c3ccc([C@](C)(O)c4cccc(C(F)(F)F)c4)cc3)c3c(N)nccn23)C1 [Example 14, (1S,3R)-3-[8-amino-1-(4-{(1S)-1-hydroxy-1-[3-(trifluoromethyl)phenyl]ethyl}phenyl)imidazo[1,5-a]pyrazin-3-yl]-1-(1-methylethyl)cyclohexanecarboxylic acid] | 1000
16 | C[C@@](O)(c1ccc(-c2nc(C34CCCC(C(=O)O)(CC3)CC4)n3ccnc(N)c23)cc1)c1cccc(C(F)(F)F)c1 [Example 9, 5-[8-amino-1-(4-{(1R)-1-hydroxy-1-[3-(trifluoromethyl)phenyl]ethyl}phenyl)imidazo[1,5-a]pyrazin-3-yl]bicyclo[3.2.2]nonane-1-carboxylic acid] | 7
17 | C[C@@](O)(c1ccc(-c2nc([C@@H]3C[C@@H]4[C@H](C3)[C@H]4C(=O)O)n3ccnc(N)c23)cc1)c1cccc(C(F)(F)F)c1 [Example 36, (1R,3R,5S,6r)-3-[8-amino-1-(4-{(1R)-1-hydroxy-1-[3-(trifluoromethyl)phenyl]ethyl}phenyl)imidazo[1,5-a]pyrazin-3-yl]bicyclo[3.1.0]hexane-6-carboxylic acid] | 1.1
18 | C[C@@](O)(c1ccc(-c2nc([C@@H]3C[C@H]4CC[C@@H](C3)[C@H]4C(=O)O)n3ccnc(N)c23)cc1)c1cccc(C(F)(F)F)c1 [Example 26, (3-exo,8-syn)-3-[8-amino-1-(4-{(1R)-1-hydroxy-1-[3-(trifluoromethyl)phenyl]ethyl}phenyl)imidazo[1,5-a]pyrazin-3-yl]bicyclo[3.2.1]octane-8-carboxylic acid] | 33.5
19 | CC(C)[C@@]1(C(=O)O)CC[C@H](c2nc(-c3ccc([C@@](C)(O)c4cccc(C(F)F)c4)cc3)c3c(N)ncc(Cl)n23)C1 [Example 30, (1R,3S)-3-[8-amino-5-chloro-1-(4-{(1R)-1-[3-(difluoromethyl)phenyl]-1-hydroxyethyl}phenyl)imidazo[1,5-a]pyrazin-3-yl]-1-(1-methylethyl)cyclopentanecarboxylic acid] | 32.3
20 | CC(C)[C@]1(C(=O)O)CC[C@H](c2nc(-c3ccc([C@@](C)(O)c4cccc(C(F)F)c4)cc3)c3c(N)ncc(Cl)n23)C1 [Example 31, (1S,3S)-3-[8-amino-5-chloro-1-(4-{(1R)-1-[3-(difluoromethyl)phenyl]-1-hydroxyethyl}phenyl)imidazo[1,5-a]pyrazin-3-yl]-1-(1-methylethyl)cyclopentanecarboxylic acid] | 133
21 | CC(C)[C@]1(C(=O)O)CC[C@H](c2nc(-c3ccc([C@](C)(O)c4cccc(C(F)(F)F)c4)cc3)c3c(N)nccn23)C1 [Example 4, (1S,3S)-3-[8-amino-1-(4-{(1S)-1-hydroxy-1-[3-(trifluoromethyl)phenyl]ethyl}phenyl)imidazo[1,5-a]pyrazin-3-yl]-1-(1-methylethyl)cyclopentanecarboxylic acid] | 1000
